In general, IC50 refers to the concentration that inhibits the measured activity by half.

This note sets out measurements from patent publication US7868013B2, “Cycloalkyl substituted pyrimidinediamine compounds and their uses” (Rigel Pharmaceuticals, Inc., priority 2004, dated 2011).

Holding throughout (assay type): cell-based
The subject of one assay is A549 (lung carcinoma). Briefly: In vitro antiproliferation assay, A549 cells (TABLE 1 6 point assay; TABLE 2). As to the method: (§1) Certain compounds were tested against other cell types for their ability to inhibit proliferation in standard antiproliferation assays.
Assay [1] concerns H1299 (non-small cell lung carcinoma). As to the kind of experiment: In vitro antiproliferation assay, H1299 cells (TABLE 1 6 point assay; TABLE 2). As to the method:
as §1

In the next assay the test system is H7299. As to the kind of experiment: In vitro antiproliferation assay, H7299 cells. The protocol:
as §1

Assay [2] relates to a variety of tumor cell types. As to the kind of experiment: In vitro antiproliferation assays against a variety of tumor cell types (stereoisomer comparison). Conditions: for Inhibition of proliferation of a variety of tumor cell lines: in words. As to the method: Moreover, it has been discovered that the enantiomer corresponding to the (1R,2R,3S,4S) diastereomer of structural formula (IVa) is largely responsible for the potency of the exo-exo cis racemate.
as §1

Assay [3] has as its system COLO 205 (colorectal adenocarcinoma). Briefly: In vitro antiproliferation assay, COLO 205 cells. Conditions: Homo sapiens, COLO 205; Colo205. As to the method:
as §1

Assay [4] relates to HL160 (promyeloblast promyelocytic leukemia). Briefly: In vitro antiproliferation assay, HL160 cells. As to the method: as §1
Assay [5] has as its system K562 (bone marrow chronic myelogenous leukemia). As to the kind of experiment: In vitro antiproliferation assay, K562 cells. The conditions noted are these: Homo sapiens. As to the method:
as §1

In assay [6] the test system is L1210 (mouse lymphocytic leukemia). Briefly: In vitro antiproliferation assay, L1210 cells. The conditions noted are these: Mus musculus. As to the method:
as §1

The test system of assay [7] is MiaPaCa-2 (pancreatic carcinoma). As to the kind of experiment: In vitro antiproliferation assay, MiaPaCa-2 cells. The conditions noted are these: Homo sapiens, MIA PaCa-2; Miapaca2; read-out: In Vitro IC50. The protocol: Cis racemic Compound 15, (1S,2R) enantiomeric Compound 15a and […] enantiomeric Compound 15b were also tested against DU145 (prostate carcinoma), HCT116 (colorectal carcinoma) and MiaPaCa-2 (pancreatic carcinoma) cell lines.
as §1

The subject of assay [8] is MOLT3 (T lymphoblast acute lymphoblastic leukemia). As to the kind of experiment: In vitro antiproliferation assay, MOLT3 cells. Conditions: Homo sapiens, MOLT-3. As to the method:
as §1

Assay [9] relates to MOLT4 (T lymphoblast acute lymphoblastic leukemia). Briefly: In vitro antiproliferation assay, MOLT4 cells. Conditions: Homo sapiens, MOLT-4. The protocol:
as §1

Assay [10] has as its system SW620 (colorectal adenocarcinoma). Briefly: In vitro antiproliferation assay, SW620 cells. Conditions: Homo sapiens, SW-620. The protocol:
as §1

Assay [11] relates to THP-1 (monocyte acute monocytic leukemia). As to the kind of experiment: In vitro antiproliferation assay, THP-1 cells. The conditions noted are these: Homo sapiens. The protocol: as §1
Assay [12] deals with U937 (histiocytic lymphoma). As to the kind of experiment: In vitro antiproliferation assay, U937 cells. Conditions: Homo sapiens, U-937. As to the method:
as §1

Where [13] appears, read: 6 point assay, A549 cells, read-out: IC50, A549 cells.
The mark [14] stands for this setting: 6 point assay, H1299 cells, read-out: IC50, H1299 cells.
Setting [15] is: Homo sapiens, A549, 6 point assay, A549 cells, read-out: IC50, A549 cells.
Where [16] appears, read: Homo sapiens, NCI-H1299, 6 point assay, H1299 cells, read-out: IC50, H1299 cells.

Molecules are shown by their SMILES. Structures can show the parent of a compound that is named as a salt. Where two headings read alike, the source gives them in different places. Bounds are passed on as bounds.

With `Cc1cc(Nc2ncc(F)c(NC3C4C=CC(C4)C3C(N)=O)n2)ccc1N1CCN(C)CC1` (racemic) [Compound 60r2, Racemic-(2-endo,3-endo)-N4-(3-aminocarbonylbicyclo[2.2.1]hept-5-en-2-yl)-5-fluoro-N2-[3-methyl-4-(4-methylpiperazin-1-yl)phenyl]-2,4-pyrimidinediamine], the IC50 with A549 (lung carcinoma) (setting [13]) was 100 to 1000 nM; with A549 (lung carcinoma) (A549, read-out: In Vitro IC50), at most 1000 nM; in assay [1] (setting [14]) it was 100 to 1000 nM; in the assay on H7299, at most 1000 nM.

Regarding `Cc1cc(Nc2ncc(F)c(NC3C4C=CC(C4)C3C(N)=O)n2)ccc1N1CCN(C)CC1` (racemic) [Compound 228, Racemic N4-(3-Aminocarbonylbicyclo[2.2.1]hept-5-en-2-yl)-5-fluoro-N2-[3-methyl-4-(4-methylpiperazin-1-yl)phenyl]-2,4-pyrimidinediamine Hydrogen Chloride Salt], the half-maximal inhibitory concentration (IC50) is at most 100 nM in the assay on A549 (lung carcinoma) (setting [13]); at most 1000 nM in the assay with A549 (lung carcinoma) (A549, read-out: In Vitro IC50); at most 100 nM in assay [1] (setting [14]); at most 1000 nM in assay [1] (H1299, read-out: In Vitro IC50); at most 1000 nM with H7299.

In the case of `Cc1cc(Nc2ncc(F)c(NC3C4C=CC(C4)C3C(N)=O)n2)ccc1N1CCN(C)CC1` (racemic) [cis exo-exo racemate, N4-(3-aminocarbonylbicyclo[2.2.1]hept-5-en-2-yl)-5-fluoro-N2-[3-methyl-4-(4-methylpiperazin-1-yl)phenyl]-2,4-pyrimidinediamine], the “Potency relative to the cis endo-endo racemate” value in assay [2] (cis exo-exo racemate, all cell lines tested) is given as “approximately twenty-fold more potent”.

As for `Cc1cc(Nc2ncc(F)c(NC3C4C=CC(C4)C3C(N)=O)n2)ccc1N1CCN(C)CC1` [(1S,2S,3R,4R) diastereomer, N4-(3-aminocarbonylbicyclo[2.2.1]hept-5-en-2-yl)-5-fluoro-N2-[3-methyl-4-(4-methylpiperazin-1-yl)phenyl]-2,4-pyrimidinediamine], the “IC50s when tested as isolated stereoisomers” value in assay [2] (range in words, same cell lines) is “micromolar range”.

As for `Cc1cc(Nc2ncc(F)c(NC3CCCC3C(N)=O)n2)ccc1N1CCN(C)CC1` [cis (1R,2S), N4-(2-aminocarbonylcyclopent-1-yl)-5-fluoro-N2-[4-(4-methylpiperazin-1-yl)-3-methylphenyl]-2,4-pyrimidinediamine], the “Inhibition of proliferation of a variety of tumor cell lines” value (“Inhibition” for short) in [2] is “inhibit the proliferation”.

In the case of `Cc1cc(Nc2ncc(F)c(NC3CCCC3C(N)=O)n2)ccc1N1CCN(C)CC1` [cis (1S,2R), N4-(2-aminocarbonylcyclopent-1-yl)-5-fluoro-N2-[4-(4-methylpiperazin-1-yl)-3-methylphenyl]-2,4-pyrimidinediamine], the “Inhibition” value in assay [2] was “inhibit the proliferation”.

Regarding `Cc1cc(Nc2ncc(F)c(N[C@@H]3CCC[C@@H]3C(N)=O)n2)ccc1N1CCN(C)CC1` [compound 222, (1R,2S)-N4-(2-Aminocarbonylcyclopent-1-yl)-5-fluoro-N2-[3-methyl-4-(4-methylpiperazin-1-yl)phenyl]-2,4-pyrimidinediamine Bis Hydrogen Chloride Salt], the half-maximal inhibitory concentration (IC50) in the assay on A549 (lung carcinoma) (setting [13]) was 100 to 1000 nM; in the assay with A549 (lung carcinoma) (Homo sapiens, A549, A549, read-out: In Vitro IC50) it was at most 1000 nM; in [1] (setting [14]), 100 to 1000 nM; in assay [1] (Homo sapiens, NCI-H1299, H1299, read-out: In Vitro IC50) it was at most 1000 nM; in assay [3], at most 1000 nM; in [4], at most 1000 nM. Besides, the IC50 in [5] was above 1000 nM; in assay [6], at most 1000 nM; in assay [7], at most 1000 nM; in assay [8], at most 1000 nM; in assay [9], at most 1000 nM; in assay [10], at most 1000 nM. The IC50 in assay [11] and in [12] was at most 1000 nM in each case.

With `Cc1cc(Nc2ncc(F)c(NC3C4CC5CC(C4)CC3C5)n2)ccc1N1CCN(C)CC1` (stereo not drawn) [compound 258, N4-(2-Adamantyl)-5-fluoro-N2-[3-methyl-4-(4-methylpiperazin-1-yl)phenyl]-2,4-pyrimidinediamine], the half-inhibitory concentration (IC50) (in the assay on A549 (lung carcinoma) (setting [15]); in assay [1] (setting [16])) was 1000 to 10000 nM throughout.

With `Cc1cc(Nc2ncc(F)c(NC34CC5CC(CC3C5)C4)n2)ccc1N1CCN(C)CC1` [compound 259, 5-Fluoro-N2-[3-methyl-4-(4-methylpiperazin-1-yl)phenyl]-N4-(3-noradamantyl)-2,4-pyrimidinediamine], the IC50 (with A549 (lung carcinoma) (setting [15]); in assay [1] (setting [16])) was 1000 to 10000 nM each time.

Turning to `CCS(=O)(=O)N1CCN(c2ccc(Nc3ncc(F)c(N[C@H]4[C@@H](C(N)=O)[C@@H]5C=C[C@H]4C5)n3)cc2C)CC1` [compound 269, (1R,2R,3S,4S)-N4-(3-Aminocarbonylbicyclo[2.2.1]hept-5-en-2-yl)-N2-[3-methyl-4-(4-ethylsulfonylpiperazin-1-yl)phenyl]-5-fluoro-2,4-pyrimidinediamine], the IC50 (with A549 (lung carcinoma) (setting [13]); in assay [1] (setting [14])) was at most 100 nM in each case.

`CCS(=O)(=O)N1CCN(c2ccc(Nc3ncc(F)c(N[C@H]4[C@@H](C(N)=O)[C@@H]5C=C[C@H]4C5)n3)cc2C)CC1` [compound 270, (1R,2R,3S,4S)-N4-(3-aminocarbonylbicyclo[2.2.1]hept-5-ene-2-yl)-N2-[3-methyl-4-(4-ethylsulfonylpiperazin-1-yl)phenyl]-5-fluoro-2,4-pyrimidinediamine Bis Hydrochloride Salt]: the IC50 is 1000 to 10000 nM in the assay with A549 (lung carcinoma) (6 point assay, A549 cells, Bis Hydrochloride Salt, read-out: IC50, A549 cells) and 1000 to 10000 nM in [1] (6 point assay, H1299 cells, Bis Hydrochloride Salt, read-out: IC50, H1299 cells).

With `Cc1cc(Nc2ncc(F)c(N[C@H]3[C@@H](C(N)=O)[C@@H]4C=C[C@H]3C4)n2)ccc1NC1CCN(C)CC1` [compound 272, (1R,2R,3S,4S)-N4-(3-Aminocarbonylbicyclo[2.2.1]hept-5-en-2-yl)-5-fluoro-N2-(3-methyl-4-(1-methylpiperidin-4-ylamino)phenyl]-2,4-pyrimidinediamine], the 50% inhibitory concentration (IC50) (in the assay with A549 (lung carcinoma) (setting [15]); in assay [1] (setting [16])) was at most 100 nM throughout.

Turning to `NC(=O)[C@@H]1[C@H](Nc2nc(Nc3ccc(C4CCNCC4)cc3)ncc2F)[C@H]2C=C[C@@H]1C2` [compound 273, (1R,2R,3S,4S)-N4-(3-Aminocarbonylbicyclo[2.2.1]hept-5-en-2-yl)-5-fluoro-N2-[4-(piperidin-4-yl)phenyl]-2,4-pyrimidinediamine], the values for the IC50 (with A549 (lung carcinoma) (setting [15]); in [1] (setting [16])) were at most 100 nM and 100 to 1000 nM, respectively.

Turning to `NC(=O)[C@@H]1[C@H](Nc2nc(Nc3cccc(C4CCNCC4)c3)ncc2F)[C@H]2C=C[C@@H]1C2` [compound 274, (1R,2R,3S,4S)-N4-(3-Aminocarbonylbicyclo[2.2.1]hept-5-en-2-yl)-5-fluoro-N2-[3-(piperidin-4-yl)phenyl]-2,4-pyrimidinediamine], the IC50 (in the assay with A549 (lung carcinoma) (setting [15]); in assay [1] (setting [16])) was at most 100 nM in each case.

Turning to `CN1CCC(c2cccc(Nc3ncc(F)c(N[C@H]4[C@@H](C(N)=O)[C@@H]5C=C[C@H]4C5)n3)c2)CC1` [compound 275, (1R,2R,3S,4S)-N4-(3-Aminocarbonylbicyclo[2.2.1]hept-5-en-2-yl)-5-fluoro-N2-[3-(1-methylpiperidin-4-yl)phenyl]-2,4-pyrimidinediamine], the half-maximal inhibitory concentration (IC50) (in the assay with A549 (lung carcinoma) (setting [15]); in [1] (setting [16])) was at most 100 nM in each case.

For `Cc1cc(Nc2ncc(F)c(NC3CCCC3C(N)=O)n2)ccc1N1CCN(C)CC1` [trans (1R,2R) diastereomer, N4-(2-aminocarbonylcyclopent-1-yl)-5-fluoro-N2-[4-(4-methylpiperazin-1-yl)-3-methylphenyl]-2,4-pyrimidinediamine], in assay [2], the “Inhibition” value was “inhibit the proliferation”.

Consider `Cc1cc(Nc2ncc(F)c(NC3CCCC3C(N)=O)n2)ccc1N1CCN(C)CC1` [trans (1S,2S) diastereomer, N4-(2-aminocarbonylcyclopent-1-yl)-5-fluoro-N2-[4-(4-methylpiperazin-1-yl)-3-methylphenyl]-2,4-pyrimidinediamine], for which, in assay [2], the “Inhibition” value is “relatively inactive”.
